Measured values from patent US8551721B2, “Bioluminescent detection of cyanohydroxy benzothiazole compounds” (Promega Corporation, priority 2008, dated 2013).

Experiments:
Assay type in all cases: biochemical
UGT 1A8 = molecular target: T1, UGT 1A8 (Homo sapiens, UniProt Q9HAW9); experiment: UGT activity: utilization of substrate by recombinant UGT 1A8 Supersomes; conditions: 2 hour incubation at 37° C., plus vs minus UDPGA, background corrected
T1 construct: purchased BD Gentest; host or cells: insect cells (microsomes)
T1 sequence (Q9HAW9 26-530): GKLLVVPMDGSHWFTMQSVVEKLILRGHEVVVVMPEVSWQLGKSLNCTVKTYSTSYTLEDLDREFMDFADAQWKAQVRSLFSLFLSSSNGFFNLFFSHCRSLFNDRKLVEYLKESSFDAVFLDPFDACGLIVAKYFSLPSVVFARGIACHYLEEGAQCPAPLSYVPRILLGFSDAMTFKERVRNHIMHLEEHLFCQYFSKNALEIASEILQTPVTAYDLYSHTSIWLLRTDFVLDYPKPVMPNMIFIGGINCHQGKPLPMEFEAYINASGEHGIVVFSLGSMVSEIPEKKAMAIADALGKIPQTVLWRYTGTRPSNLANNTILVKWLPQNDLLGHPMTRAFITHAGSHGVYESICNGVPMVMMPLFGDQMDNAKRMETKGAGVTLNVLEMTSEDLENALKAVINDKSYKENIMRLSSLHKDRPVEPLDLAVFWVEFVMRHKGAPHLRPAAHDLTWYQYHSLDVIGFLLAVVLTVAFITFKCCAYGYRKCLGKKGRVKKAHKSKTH
Protocol: (§1) The invention includes a method of determining activity of the uridine 5′-diphospho-glucuronosyltransferase (UDP-glucuronosyltransferase, or UGT) family enzymes in vitro. Briefly, UGT enzymes from overexpressed insect microsomes (Supersomes™, BD Gentest™) or animal tissue microsomes (Xenotech, BD Gentest™) were incubated with a cyanobenzothiazole substrate of the invention and the cofactor UDP-glucuronic acid (UDPGA) at 37° C. in buffer at physiological pH containing MgCl2 and alamethicin (typically, 50 mM TES, pH 7.5, 8 mM MgCl2, 4 mM UDPGA (Sigma) and 25 μg/mL alamethicin (Sigma)). Following the UGT enzyme reaction, an equal volume of P450-Glo Luciferin Detection Reagent (Promega) containing 15-30 mM D-cysteine-HCl.H2O (Sigma) was added and the plate was mixed and incubated at room temperature, typically for 20-30 minutes. […]
(§2) During this incubation, the cysteine reacts with the cyanobenzathiozole substrate to yield a D-luciferin derivative. […] Therefore, activity of the UGT enzyme can be measured by analyzing the difference (lower or no output) in relative light units (RLU) of a sample in which glucuronidation occurs compared to a sample that was run under the same conditions with no added UDPGA cofactor. […]
(§3) Reactions were assembled in a white 96-well plate. […] After the incubation was completed, the plate was read on a Veritas™ luminometer (Turner BioSystems, Inc.; Sunnyvale, Calif.). […]

UGT 2B4 = molecular target: T2, UGT 2B4 (Homo sapiens, UniProt P06133); experiment: UGT activity: utilization of substrate by recombinant UGT 2B4 Supersomes; conditions: 2 hour incubation at 37° C., plus vs minus UDPGA
T2 construct: purchased BD Gentest; host or cells: insect cells (microsomes)
T2 sequence (P06133 24-528): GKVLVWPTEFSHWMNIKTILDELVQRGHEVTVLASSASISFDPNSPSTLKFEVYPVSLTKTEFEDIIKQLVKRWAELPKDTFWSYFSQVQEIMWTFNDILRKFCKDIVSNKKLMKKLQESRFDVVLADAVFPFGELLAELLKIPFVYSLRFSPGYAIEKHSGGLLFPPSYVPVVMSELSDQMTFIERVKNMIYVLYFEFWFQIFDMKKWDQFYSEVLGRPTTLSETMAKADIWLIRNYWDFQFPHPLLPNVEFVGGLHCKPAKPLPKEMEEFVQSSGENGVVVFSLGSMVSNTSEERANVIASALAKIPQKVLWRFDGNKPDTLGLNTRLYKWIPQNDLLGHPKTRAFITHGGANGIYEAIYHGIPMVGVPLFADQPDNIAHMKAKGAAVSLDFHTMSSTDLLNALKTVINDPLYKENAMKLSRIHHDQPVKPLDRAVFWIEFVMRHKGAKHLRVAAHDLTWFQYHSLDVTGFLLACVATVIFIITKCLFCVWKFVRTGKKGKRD
Protocol: as §1, §2, §3

UGT 1A6 = molecular target: T3, UGT 1A6 (Homo sapiens, UniProt P19224); experiment: UGT activity: utilization of substrate by recombinant UGT 1A6 Supersomes; conditions: 2 hour incubation at 37° C., plus vs minus UDPGA
T3 construct: purchased BD Gentest; host or cells: insect cells (microsomes)
T3 sequence (P19224 27-532): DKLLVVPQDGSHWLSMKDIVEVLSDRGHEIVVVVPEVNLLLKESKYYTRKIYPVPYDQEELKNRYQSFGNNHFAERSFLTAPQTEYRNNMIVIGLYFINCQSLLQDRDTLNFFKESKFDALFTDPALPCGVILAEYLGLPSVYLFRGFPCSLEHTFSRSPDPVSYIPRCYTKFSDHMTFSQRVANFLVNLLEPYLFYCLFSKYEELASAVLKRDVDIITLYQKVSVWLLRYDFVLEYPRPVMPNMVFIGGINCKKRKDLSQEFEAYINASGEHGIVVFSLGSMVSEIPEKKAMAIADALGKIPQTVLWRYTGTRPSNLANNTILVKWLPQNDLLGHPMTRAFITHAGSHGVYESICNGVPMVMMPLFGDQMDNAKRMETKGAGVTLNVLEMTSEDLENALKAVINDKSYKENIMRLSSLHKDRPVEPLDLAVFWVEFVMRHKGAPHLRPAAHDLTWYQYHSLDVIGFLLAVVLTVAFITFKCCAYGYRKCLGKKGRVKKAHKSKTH
Protocol: as §1, §2, §3

SMILES | % utilization by UGT 1A8 (UGT 1A8) | utilization by UGT 2B4 (in words) (UGT 2B4) | utilization by UGT 1A6 (in words) (UGT 1A6)
Cc1cc(O)cc2sc(C#N)nc12 [compound 3138] | over 50% | did not utilize either compound 3138 or 3478 to an appreciable extent | detectable levels of utilization above background
Cc1cc(O)cc2sc(C3=NC(C(=O)O)CS3)nc12 (stereo not drawn) [compound 3478] | ≤ 15% | did not utilize either compound 3138 or 3478 to an appreciable extent | only UGT 1A6 was able to utilize compound 3478 to any appreciable extent
